Laboratory results from patent US20240226001A1, “Contact Lenses And Other Eye-Contacting Matrices Carrying Mitochondrially-Targeted Antioxidants” (Mitotech S.A., priority 2015, published 2024).
Where “and” joins values, the source holds several entries; their conditions need not be identical. Equal values may be shown once. Read-outs that look alike come from different tables or passages of the source. One block for each molecule: values may come before it.

Legend:
[1] = Adsorption of MTCs on a matrix from PBS versus 50% ethanol, HPLC (Example 4); assay type: physicochemical; settings: 250 nM solution in dark glass vials; adsorption in 50% ethanol negligible
Procedure: It must be noted that SkQ3 differs from SkQ1 by the antioxidant moiety (A moiety in the formula I—see above), while SkB1 differs from SkQ1 by both the linker (L moiety) and targeting moiety (B moiety). So in this experiment, variations in all 3 parts of MTC molecule were successfully used.
The experiment was conducted as follows: 990 μl of phosphate buffered saline (PBS) or 50% water-ethanol solution (SkQ adsorption in 50% ethanol is negligible) was placed in dark glass chromatography vials (Waters, p/n 186000847c). 10 ul of 25 μM SkQ solution in ethanol was then added to each vial, yielding a 250 nM solution. The vials were vigorously mixed and the SkQ concentration in each vial (100 μl samples) was analyzed by HPLC using a Luna C 18 (2), Phenomenex, 250 MM '4.6 mm column with a sorbent particle size of 5 μm. The liquid phase used was acetonitrile:water (56:44), and the flow speed was 1 ml/min. at 25° C. UV detection was performed at A260.

[2] = Adsorption of SkQ1 from saline on soft disposable contact lens, retention in saline, extraction with 50% acetonitrile (Example 2); assay type: physicochemical
Procedure: Lens pre-wash: soft disposable contact lenses were thoroughly rinsed with saline solution (0.9% NaCl) and incubated in this solution overnight. Preparation of 2.5 μM SkQ1 solution: 4 mL of saline solution was placed in dark glass vials. 40 μL of 500 μM SkQ1 solution in 50% ethanol was added into each vial yielding 2.5 μM SkQ1 solution. Solution in the vial was thoroughly mixed and then incubated overnight to yield A1 series solution. Then aliquots of A1 series were collected from these vials.
During the experiment a pre-washed contact lens was placed into a glass vial with 2.5 uM SkQ1 solution and incubated at +4° C.-+8 °C for 4 days. Then the contact lenses were removed from the 2.5 μM SkQ1 solution, rinsed with saline solution and placed into fresh saline solution and incubated overnight at +4° C.-+8° C. to yield A2 series solution. Aliquots of the A2 series solution were collected from the vials where lenses were incubated in 2.5 μM SkQ1 solution.
After the above described overnight lens incubation in saline solution, lenses were placed in vials containing 500 μL of 50% acetonitrile and mixed during 1 hour at +25° C. Then aliquots of this acetonitrile solution was collected (A3 series).
The content of SkQ1 in the collected aliquots was analyzed using LCMS/MS.

[3] = SkQ1 content of control lenses (intact lenses kept in saline solution) (Example 3); assay type: physicochemical; settings: for SkQ1 conc. in control lenses: 50% acetonitrile extract
Procedure: (§1) The experiment was performed as follows: contact lenses were supplemented with SkQ1 as described in Example 2, then some lenses were placed on rabbit eyes and some lenses left aside in saline solution. At certain time points (see below in the table 3) contact lenses were removed from rabbits' eyes (experimental lenses) or saline solution (control lenses) and such rabbits were euthanized and their cornea were taken for SkQ1 content analysis. Then SkQ1 was extracted from the collected lenses and cornea samples using 50% acetonitrile solution and the SkQ1 amount in the extracts was determined using LCMS/MS.

rabbit eyes = assay: SkQ1 content of experimental lenses taken from rabbits eyes (Example 3); assay type: in vivo; settings: for SkQ1 conc. in experimental lenses: 50% acetonitrile extract; for SkQ1 conc. in experimental lenses / SkQ1 amount in experimental lenses: single samples; for Average SkQ1 amount in experimental lenses: average of 2 samples
Procedure: as §1

[4] = SkQ1 concentration in rabbit cornea after SkQ1-supplemented contact lens (Example 3); assay type: in vivo; settings: rabbit; for concentration at 30 min / concentration at 1 h / concentration at 2 h: topical; for concentration at 30 min: 30 min after lens placement; for concentration at 1 h: 1 hour after lens placement; for concentration at 2 h: 2 hours after lens placement
Procedure: as §1

rabbit cornea [5] = assay: as above; assay type: in vivo; settings: for SkQ1 nM in cornea / SkQ1 ng per g of cornea / SkQ1 concentration in the cornea (extract): single samples
Procedure: as §1

rabbit cornea [6] = assay: SkQ1 concentration in rabbit cornea after instillation of eye drops (control experiment); assay type: in vivo; settings: eye drops containing 1.55 μg/mL of SkQ1, FIG. 2B
Procedure: Thus SkQ1 was efficiently transferred from the experimental lens into the eye. In the control experiment, SkQ1 was administered into the rabbit eye by instillation of eye drops containing 1.55 μg/mL of SkQ1. At certain time points, samples of rabbit cornea were taken and analyzed for SkQ1 content using LCMS/MS. […] Thus, the mode of accumulation of SkQ1 in the cornea is different when SkQ1 is administered via contact lenses (compare graphs on FIG. 2A and FIG. 2B).

[7] = A1 series: 2.5 μM SkQ1 saline solution before lens
[8] = A2 series: saline solution after lens incubation
[9] = A3 series: 50% acetonitrile extract of lens, 1 hour at +25° C.
[10] = cornea (50% acetonitrile extract), single samples, read-out: SkQ1 concentration in the cornea (extract)
[11] = cornea, average of 2 samples, read-out: SkQ1 Aver. nM in cornea
[12] = cornea, single samples, read-out: SkQ1 nM in cornea
[13] = cornea, single samples, read-out: SkQ1 ng per g of cornea

- Concentration in PBS as % of the concentration in 50% ethanol [1]: 63.8%
Compound: COc1ccc2c(CC(=O)OCCCCCCCC3=CC(=O)C(C)=C(C)C3=O)c3[n+](cc2c1OC)CCc1cc2c(cc1-3)OCO2 [SkQB1]

- Concentration in PBS as % of the concentration in 50% ethanol [1]: 29.6%
Compound: CC1=C(C)C(=O)C(CCCCCCCCCC[P+](c2ccccc2)(c2ccccc2)c2ccccc2)=C(C)C1=O [SkQ3]

- Calculated total SkQ1 amount in the vial, M ± SE (n = 9) [2, 7]: 3.69 µg and 3.69 ± 0.11 µg
- SkQ1 concentration found, M ± SE (n = 9) [2, 7]: 0.97 ± 0.03 µg/mL
- Calculated total SkQ1 amount in the vial, M ± SE (n = 9) [2, 8]: 0.19 µg and 0.19 ± 0.07 µg
- SkQ1 concentration found, M ± SE (n = 9) [2, 8]: 0.1 ± 0.04 µg/mL
- Calculated total SkQ1 amount in the vial (=total SkQ1 amount extracted from the lens), M ± SE (n = 9) [2, 9]: 2.5 µg and 2.5 ± 0.08 µg
- SkQ1 concentration found, M ± SE (n = 9) [2, 9]: 9.9 ± 0.33 µg/mL
- SkQ1 amount in control lenses ([3]; 30 min in saline): 4.611 nmoles/sample
- SkQ1 conc. in control lenses ([3]; 30 min in saline): 5.690 µg/mL
- SkQ1 concentration on intact control lenses left in saline over time ([3]; 30 min to 6 hours, FIG. 1): stayed stable
- SkQ1 amount in control lenses ([3]; 1 hour in saline): 4.966 nmoles/sample
- SkQ1 conc. in control lenses ([3]; 1 hour in saline): 6.129 µg/mL
- SkQ1 amount in control lenses ([3]; 2 hours in saline): 5.107 nmoles/sample
- SkQ1 conc. in control lenses ([3]; 2 hours in saline): 6.302 µg/mL
- SkQ1 amount in control lenses ([3]; 6 hours in saline): 4.377 nmoles/sample
- SkQ1 conc. in control lenses ([3]; 6 hours in saline): 5.052 µg/mL
- SkQ1 conc. in experimental lenses (rabbit eyes; 30 min on rabbit eye): 2.868 µg/mL and 3.006 µg/mL
- Average SkQ1 amount in experimental lenses (rabbit eyes; 30 min on rabbit eye): 2.38 nmoles/sample
- Amount of SkQ1 in the contact lens placed on the eye over time (rabbit eyes; 30 min to 6 hours, FIG. 1): decreased with time
- SkQ1 conc. in experimental lenses (rabbit eyes; 1 hour on rabbit eye): 3.339 µg/mL and 3.200 µg/mL
- Average SkQ1 amount in experimental lenses (rabbit eyes; 1 hour on rabbit eye): 2.65 nmoles/sample
- SkQ1 conc. in experimental lenses (rabbit eyes; 2 hours on rabbit eye): 2.77 µg/mL and 2.854 µg/mL
- Average SkQ1 amount in experimental lenses (rabbit eyes; 2 hours on rabbit eye): 2.279 nmoles/sample
- SkQ1 conc. in experimental lenses (rabbit eyes; 6 hours on rabbit eye): 1.448 µg/mL and 1.229 µg/mL
- Average SkQ1 amount in experimental lenses (rabbit eyes; 6 hours on rabbit eye): 1.114 nmoles/sample
- concentration at 30 min [4, 10]: 0.64 ng/mL
- concentration at 1 h [4, 10]: 1.56 ng/mL
- concentration at 2 h [4, 10]: 1.46 ng/mL
- concentration at 6 h ([4]; cornea, other: SkQ1-supplemented contact lens placed on the eye, 6 hours after lens placement, average of 2 samples, read-out: SkQ1 Aver. nM in cornea): 17.8 nM
- concentration at 30 min [4, 11]: 5.59 nM
- concentration at 30 min [4, 12]: 6.22 nM
- concentration at 30 min [4, 13]: 3.84 ng/g
- concentration at 1 h [4, 11]: 14.7 nM
- concentration at 1 h [4, 12]: 15.2 nM
- concentration at 1 h [4, 13]: 9.36 ng/g
- concentration at 2 h [4, 11]: 13.8 nM
- concentration at 2 h [4, 12]: 14.2 nM
- concentration at 2 h [4, 13]: 8.76 ng/g
- SkQ1 nM in cornea (rabbit cornea [5]; 30 min after lens placement): 4.96 nM
- SkQ1 ng per g of cornea (rabbit cornea [5]; 30 min after lens placement): 3.06 ng per g of cornea
- SkQ1 concentration in the cornea (extract) (rabbit cornea [5]; 30 min after lens placement): 0.51 ng/mL
- SkQ1 nM in cornea (rabbit cornea [5]; 1 hour after lens placement): 14.30 nM
- SkQ1 ng per g of cornea (rabbit cornea [5]; 1 hour after lens placement): 8.82 ng per g of cornea
- SkQ1 concentration in the cornea (extract) (rabbit cornea [5]; 1 hour after lens placement): 1.47 ng/mL
- SkQ1 nM in cornea (rabbit cornea [5]; 2 hours after lens placement): 13.32 nM
- SkQ1 ng per g of cornea (rabbit cornea [5]; 2 hours after lens placement): 8.22 ng per g of cornea
- SkQ1 concentration in the cornea (extract) (rabbit cornea [5]; 2 hours after lens placement): 1.37 ng/mL
- Concentration of SkQ1 in the rabbits' eye cornea over time (rabbit cornea [5]; administered via contact lens, FIG. 2A): gradually increased
- Time of maximum SkQ1 concentration in cornea (rabbit cornea [6]): 30 min
- Concentration in PBS as % of the concentration in 50% ethanol [1]: 51.7%
Compound: CC1=C(C)C(=O)C(CCCCCCCCCC[P+](c2ccccc2)(c2ccccc2)c2ccccc2)=CC1=O [SkQ1]
- SkQ1 amount in experimental lenses (rabbit eyes; 30 min on rabbit eye): 2.324 nmoles/sample and 2.436 nmoles/sample
- SkQ1 amount in experimental lenses (rabbit eyes; 1 hour on rabbit eye): 2.706 nmoles/sample and 2.593 nmoles/sample
- SkQ1 amount in experimental lenses (rabbit eyes; 2 hours on rabbit eye): 2.244 nmoles/sample and 2.313 nmoles/sample
- SkQ1 amount in experimental lenses (rabbit eyes; 6 hours on rabbit eye): 1.174 nmoles/sample and 1.053 nmoles/sample
